The values below come from publication PMC7917821, “In Vitro and In Silico Studies of Soluble Epoxide Hydrolase Inhibitors from the Roots of Lycopus lucidus” (Plants, 2021).

As usually defined, the IC50 is the concentration needed to halve the response being measured. Read a high IC50 as a need for much substance. What is called Ki is a dissociation constant, usually derived from enzyme kinetics or from competition with a known ligand. A lower Ki goes with tighter binding.

Where two headings read alike, the source gives them in different places.

Experiment [1] has as its target T1, sEH (Homo sapiens, UniProt P34913).
T1 construct: purchased Cayman 10011669
T1 sequence (P34913 1-555): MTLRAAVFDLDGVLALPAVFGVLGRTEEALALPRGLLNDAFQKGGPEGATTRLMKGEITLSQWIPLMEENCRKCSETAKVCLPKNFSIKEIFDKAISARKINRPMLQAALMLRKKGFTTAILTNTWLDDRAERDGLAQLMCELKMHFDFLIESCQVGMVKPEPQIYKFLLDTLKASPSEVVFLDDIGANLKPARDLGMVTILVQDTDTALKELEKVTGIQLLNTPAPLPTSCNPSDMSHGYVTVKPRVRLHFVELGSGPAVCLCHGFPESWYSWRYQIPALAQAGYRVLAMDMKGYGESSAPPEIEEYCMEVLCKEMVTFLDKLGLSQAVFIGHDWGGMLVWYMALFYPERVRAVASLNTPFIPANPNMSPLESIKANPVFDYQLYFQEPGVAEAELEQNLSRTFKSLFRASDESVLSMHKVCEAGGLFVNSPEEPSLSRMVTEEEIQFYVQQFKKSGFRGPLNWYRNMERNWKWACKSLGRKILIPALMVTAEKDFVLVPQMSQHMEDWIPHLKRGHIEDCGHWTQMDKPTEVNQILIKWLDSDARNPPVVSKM
The experiment in a line: sEH inhibitory activity assay (fluorometric, PHOME substrate). The experiment is classed as biochemical. As to conditions: for IC50: PHOME substrate, triplicate, mean ± SD; for inhibition at 100 µM: read-out: sEH inhibitory activity. The protocol: The tests were conducted using a multi plate system of the fluorometric photometer at excitation and emission wavelengths of 330 and 465 nm, respectively. […] To identify potential inhibitors of sEH, all compounds were measured at 100 µM concentration.
(§1) The inhibitory activities on the sEH were measured according to the modified methods in previous papers. PHOME was used as a substrate to examine the inhibitions of sEH, which was determined using a hydrolysis reaction of PHOME. sEH was diluted in Bis Tris–HCl buffer (25 mM containing 0.1 mg/mL BSA, pH 7.0) at 12.15 ng/mL. In a 96-well plate, 130 μL of recombinant human sEH, 20 μL of sample, and 50 μL of 40 mM PHOME were added. The absorbance was measured at excitation filter 330 nm and emission filter 465 nm for 30 min at an interval of 30 s after adding the last solution in a 96-well plate. All assays were performed in triplicate, using microplate reader (Tecan infinite F200, Grödig, Austria). Inhibitory activity (%) was calculated using the following equation:(1) Inhibitory Activity (%)=100−[Δsample / Δcontrol]×100 where Δcontrol and Δsample are the changed fluorescence […], respectively.
The enzyme inhibition parameter IC50 was calculated by fitting hyperbola equations to the data using nonlinear regression of the plot using Sigma Plot (SPP Inc., Chicago, IL, USA.). The experimental results were performed in triplicate, and presented as the means ± SD.

Experiment [2] concerns the target T1, sEH. The experiment in a line: Enzyme kinetics on sEH (Lineweaver–Burk and Dixon plots). The experiment is classed as biochemical. As to conditions: for Ki: Dixon plot; for sEH inhibition Type: Lineweaver–Burk plots, various substrate concentrations. The protocol:
The enzymatic kinetics of these compounds (7–10) were determined by calculating the initial velocity of each inhibitor at various substrate concentrations (0.19–5 mM) (Figure 2). […] This mixed type had bound to allosteric sites, a site different from the active site. In addition, the inhibitory constant values (Ki) were calculated using the Dixon plot revised from the Lineweaver–Burk plot.
as §1

Experiment [3] concerns the target T1, sEH. More on the design: method as in PMID 26548595, PMID 32972033, doi:10.1039/C6RA04207D. As to conditions: earlier reports; cited from earlier work.

As to `COC(=O)[C@@H](Cc1ccc(O)c(O)c1)OC(=O)/C=C/c1ccc(O)c(O)c1` [Compound 7, methyl rosmarinate], the concentration for half-maximal inhibition (IC50) on sEH [1] came to 16.8 ± 0.6 µM. On sEH [1] (at 100 µM concentration), the inhibition at 100 µM was more than 50%. Also, at sEH [2], affinity was put at a Ki of 9.2 µM and the “sEH inhibition Type” value is reported as “competitive inhibitors”.
As to `C=C(C)[C@@H]1CC[C@]2(C(=O)O)CC[C@]3(C)[C@H](CC[C@@H]4[C@@]5(C)CC[C@H](O)C(C)(C)[C@@H]5CC[C@]43C)[C@@H]12` [Compound 1, betulinic acid], at sEH [1], 67.8 ± 3.2 µM corresponded to half-maximal inhibition (IC50) and the inhibition at 100 µM is more than 50%. Moreover, on sEH [3], the “sEH inhibitory activity previously shown” value was “significant sEH inhibitory activity”.
For `COC(=O)[C@H]1c2c(/C=C/C(=O)O[C@H](Cc3ccc(O)c(O)c3)C(=O)O)ccc(O)c2O[C@@H]1c1ccc(O)c(O)c1` [Compound 10, 9″″-methyl lithospermate], 35.7 ± 2.1 µM corresponded to half-maximal inhibition at sEH [1] (IC50). The inhibition at 100 µM at sEH [1] (at 100 µM concentration) was more than 50%. Also, on sEH [2], the inhibition constant Ki turned out to be 7.6 µM and the “sEH inhibition Type” value is “competitive inhibitors”.
In turn, `COC(=O)[C@H](O)Cc1ccc(O)cc1` [Compound 6, latifolicinin C] registered an IC50 against sEH [1] of 52 ± 1.9 µM. Also, the inhibition at 100 µM at sEH [1] (at 100 µM concentration) is more than 50%.
For `COC(=O)[C@@H](Cc1ccc(O)c(O)c1)OC(=O)/C=C/c1ccc(O)c2c1[C@H](C(=O)OC)[C@@H](c1ccc(O)c(O)c1)O2` [Compound 9, dimethyl lithospermate], at sEH [1], the half-maximal inhibitory concentration (IC50) was 10.6 ± 3.2 µM. Besides, the inhibition at 100 µM at sEH [1] (at 100 µM concentration) is more than 50%. On sEH [2], affinity was put at a Ki of 1.9 µM and the “sEH inhibition Type” value is “competitive inhibitors”.
For `COc1ccc(CCO[C@@H]2O[C@H](CO)[C@@H](OC(=O)/C=C/c3ccc(O)c(OC)c3)[C@H](O[C@@H]3O[C@@H](C)[C@H](O)[C@@H](O)[C@H]3O)[C@H]2O)cc1O` [Compound 8, martynoside], the IC50 against sEH [1] is 19.5 ± 4.1 µM. In addition, the inhibition at 100 µM on sEH [1] (at 100 µM concentration) is more than 50%. For the same compound, at sEH [2], the inhibition constant (Ki) came out at 5.7 µM and the “sEH inhibition Type” value is recorded as “mixed type inhibitor”. In addition, at sEH [3], the “sEH inhibitory activity previously shown” value is “significant sEH inhibitory activity”.
Take `C[C@H]1[C@H](C)CC[C@]2(C(=O)O)CC[C@]3(C)C(=CC[C@@H]4[C@@]5(C)CC[C@H](O)C(C)(C)[C@@H]5CC[C@]43C)[C@H]12` [Compound 3, ursolic acid]: the midpoint of inhibition against sEH [1], the IC50, lay at 42.1 ± 4 µM. At sEH [1] (at 100 µM concentration), the inhibition at 100 µM is more than 50%. Also, the “sEH inhibitory activity previously shown” value on sEH [3] was “significant sEH inhibitory activity”.
